Test results reported in patent US10183020B2 (AstraZeneca AB, priority 2014, dated 2019).

Assays:
[1] = Solubility of AZD9291 in simulated gastric fluid, human intestinal fluid and at intestinal pH
From the text: (§1) In such cases, where the solubility of a drug varies with pH, and particularly when the solubility is highest at acidic pH, there is a problem that the drug may precipitate from solution as it passes through the gastrointestinal tract. Drugs need to be in solution in order to be absorbed, so such precipitation can lead to variability in the extent and/or rate of absorption of the drug. […] In principle, the dose administered to a patient could be increased to account for potentially poor absorption, but this approach introduces a risk that too much of the drug may enter the patient's system in some cases—which may be a safety risk and/or increase the risk/severity of side-effects. […] Accordingly, there remained a problem to provide an improved way of dosing the Agent to patients that should reduce/avoid the risk of and/or severity of the above-mentioned problems of inter-patient variability of absorption and/or inter-dose variability of absorption.

[2] = Stability of solution (precipitation); type: physicochemical; conditions: solution once formed
Permeability = type: in vitro ADME
From the text: as §1

[3] = tested on: advanced EGFRm T790M+ lung adenocarcinoma; test: Phase 1 clinical trial; type: in vivo, human; conditions: a number of patients; Agent in the form of the mesylate salt
From the text: Further details of this ‘blend in capsule’ formulation are described hereinafter as ‘Comparative Example 1’.

[4] = tested on: EGFRm+ and T790M mutant tumour xenograft and transgenic models; conditions: doses as low as 5 mg/kg/day; cited from earlier work
[5] = tested on: EGFRm+ sensitising and the T790M resistance mutant forms of EGFR; conditions: cited from earlier work
[6] = tested on: EGFRm+ and T790M mutant cell lines; conditions: in vitro; cited from earlier work
wild-type EGFR lines = conditions: in vitro, compared with mutant cell lines; cited from earlier work

| Compound | solubility at intestinal pH compared with AZD9291 in free base form ([1]; intestinal pH) | period over which solution is stable without precipitation [2] | pH dependent solubility [1] | permeability (Permeability) | clinical response [3] | tumor regression [4] | inhibition of EGFRm+ sensitising and T790M resistance mutant forms of EGFR [5] | inhibition of EGFR signaling pathways and cellular growth [6] | activity against wild-type EGFR lines (wild-type EGFR lines) |
| --- | --- | --- | --- | --- | --- | --- | --- | --- | --- |
| AZD9291 mesylate | significantly higher | at least 24 hours | – | – | – | – | – | – | – |
| C=CC(=O)Nc1cc(Nc2nccc(-c3cn(C)c4ccccc34)n2)c(OC)cc1N(C)CCN(C)C [AZD9291, N-(2-{2-dimethylaminoethyl-methylamino}-4-methoxy-5-{[4-(1-methylindol-3-yl)pyrimidin-2-yl]amino}phenyl)prop-2-enamide] | – | – | significant pH dependent solubility | moderate permeability | partial responses | profound and sustained tumor regression | potent inhibitor | potently inhibits | much less activity |
